Source: PMC7340670, “Phase I study of TAS-115, a novel oral multi-kinase inhibitor, in patients with advanced solid tumors” (Investigational New Drugs, 2019)

System: patients with advanced solid tumors
Assay: Phase I study (JapicCTI-132333): safety, tolerability, DLT, MTD, RP2D
Assay type: in vivo
Procedure: This is an open-label, nonrandomized, dose-escalation study conducted at five sites in Japan. The study has three parts: a dose-escalation cohort using a traditional 3 + 3 design (part 1), a dosing schedule investigation cohort (part 2), and an expansion cohort to assess the safety at the MTD or lower doses among more patients (expansion part).
For each dose level in part 1, three to six patients were enrolled. DLTs were evaluated during the first cycle. […] The study drug was orally administered under empty stomach conditions (1 h before or 2 h after a meal) with a cup of water. […] In the expansion part, ≤MTD was investigated for exposure and safety.
All patients in parts 1 and 2 were required to be hospitalized for cycle 1 in order to observe AE. Patients continued to receive the study drug until disease progression or intolerable toxicity. […] The number of dose reductions was up to 2, and the minimum dose was 100 mg/day. […]

[1] = Part 1, 200–800 mg/day, SID (N = 21), patients (%)
[2] = Part 2 + Expansion part, 450 or 650 mg/day, 5-on/2-off (N = 61), patients (%)

CNC(=O)c1cc2c(Oc3ccc(NC(=S)NC(=O)Cc4ccccc4)cc3F)ccnc2cc1OC [TAS-115]
CRPC patients with AEs requiring dose reduction (650 mg/day, early expansion part): five of six | Treatment-related adverse events: Alanine aminotransferase increased, Any Grade [1]: 11 (52.4) | Treatment-related adverse events: Alanine aminotransferase increased, ≥ Grade 3 [1]: 0 (0.0) | Treatment-related adverse events: Amylase increased, Any Grade [1]: 8 (38.1) | Treatment-related adverse events: Amylase increased, ≥ Grade 3 [1]: 3 (14.3) | Treatment-related adverse events: Anemia, Any Grade [1]: 2 (9.5) | Treatment-related adverse events: Anemia, ≥ Grade 3 [1]: 2 (9.5) | Treatment-related adverse events: Any Events, Any Grade [1]: 21 (100.0) | Treatment-related adverse events: Any Events, ≥ Grade 3 [1]: 13 (61.9) | Treatment-related adverse events: Aspartate aminotransferase increased, Any Grade [1]: 15 (71.4) | Treatment-related adverse events: Aspartate aminotransferase increased, ≥ Grade 3 [1]: 0 (0.0) | Treatment-related adverse events: Decreased appetite, Any Grade [1]: 7 (33.3) | Treatment-related adverse events: Decreased appetite, ≥ Grade 3 [1]: 1 (4.8) | Treatment-related adverse events: Diarrhea, Any Grade [1]: 3 (14.3) | Treatment-related adverse events: Diarrhea, ≥ Grade 3 [1]: 0 (0.0) | Treatment-related adverse events: Edema, Any Grade [1]: 6 (28.6) | Treatment-related adverse events: Edema, ≥ Grade 3 [1]: 0 (0.0) | Treatment-related adverse events: Face edema, Any Grade [1]: 6 (28.6) | Treatment-related adverse events: Face edema, ≥ Grade 3 [1]: 0 (0.0) | Treatment-related adverse events: Fatigue, Any Grade [1]: 10 (47.6) | Treatment-related adverse events: Fatigue, ≥ Grade 3 [1]: 0 (0.0) | Treatment-related adverse events: Hypophosphatemia, Any Grade [1]: 6 (28.6) | Treatment-related adverse events: Hypophosphatemia, ≥ Grade 3 [1]: 5 (23.8) | Treatment-related adverse events: Leukocytopenia, Any Grade [1]: 8 (38.1) | Treatment-related adverse events: Leukocytopenia, ≥ Grade 3 [1]: 2 (9.5) | Treatment-related adverse events: Lipase increased, Any Grade [1]: 6 (28.6) | Treatment-related adverse events: Lipase increased, ≥ Grade 3 [1]: 5 (23.8) | Treatment-related adverse events: Nausea, Any Grade [1]: 7 (33.3) | Treatment-related adverse events: Nausea, ≥ Grade 3 [1]: 0 (0.0) | Treatment-related adverse events: Neutropenia, Any Grade [1]: 8 (38.1) | Treatment-related adverse events: Neutropenia, ≥ Grade 3 [1]: 3 (14.3) | Treatment-related adverse events: Rash, Any Grade [1]: 12 (57.1) | Treatment-related adverse events: Rash, ≥ Grade 3 [1]: 2 (9.5) | Treatment-related adverse events: Thrombocytopenia, Any Grade [1]: 8 (38.1) | Treatment-related adverse events: Thrombocytopenia, ≥ Grade 3 [1]: 1 (4.8) | Treatment-related adverse events: Vomiting, Any Grade [1]: 4 (19.0) | Treatment-related adverse events: Vomiting, ≥ Grade 3 [1]: 0 (0.0) | Treatment-related adverse events: Alanine aminotransferase increased, Any Grade [2]: 23 (37.7) | Treatment-related adverse events: Alanine aminotransferase increased, ≥ Grade 3 [2]: 1 (1.6) | Treatment-related adverse events: Amylase increased, Any Grade [2]: 10 (16.4) | Treatment-related adverse events: Amylase increased, ≥ Grade 3 [2]: 1 (1.6) | Treatment-related adverse events: Anemia, Any Grade [2]: 21 (34.4) | Treatment-related adverse events: Anemia, ≥ Grade 3 [2]: 9 (14.8) | Treatment-related adverse events: Any Events, Any Grade [2]: 60 (98.4) | Treatment-related adverse events: Any Events, ≥ Grade 3 [2]: 47 (77.0) | Treatment-related adverse events: Aspartate aminotransferase increased, Any Grade [2]: 31 (50.8) | Treatment-related adverse events: Aspartate aminotransferase increased, ≥ Grade 3 [2]: 4 (6.6) | Treatment-related adverse events: Decreased appetite, Any Grade [2]: 26 (42.6) | Treatment-related adverse events: Decreased appetite, ≥ Grade 3 [2]: 6 (9.8) | Treatment-related adverse events: Diarrhea, Any Grade [2]: 14 (23.0) | Treatment-related adverse events: Diarrhea, ≥ Grade 3 [2]: 0 (0.0) | Treatment-related adverse events: Edema, Any Grade [2]: 10 (16.4) | Treatment-related adverse events: Edema, ≥ Grade 3 [2]: 0 (0.0) | Treatment-related adverse events: Face edema, Any Grade [2]: 11 (18.0) | Treatment-related adverse events: Face edema, ≥ Grade 3 [2]: 0 (0.0) | Treatment-related adverse events: Fatigue, Any Grade [2]: 27 (44.3) | Treatment-related adverse events: Fatigue, ≥ Grade 3 [2]: 1 (1.6) | Treatment-related adverse events: Hypophosphatemia, Any Grade [2]: 20 (32.8) | Treatment-related adverse events: Hypophosphatemia, ≥ Grade 3 [2]: 13 (21.3) | Treatment-related adverse events: Leukocytopenia, Any Grade [2]: 18 (29.5) | Treatment-related adverse events: Leukocytopenia, ≥ Grade 3 [2]: 7 (11.5) | Treatment-related adverse events: Lipase increased, Any Grade [2]: 9 (14.8) | Treatment-related adverse events: Lipase increased, ≥ Grade 3 [2]: 4 (6.6) | Treatment-related adverse events: Nausea, Any Grade [2]: 26 (42.6) | Treatment-related adverse events: Nausea, ≥ Grade 3 [2]: 1 (1.6) | Treatment-related adverse events: Neutropenia, Any Grade [2]: 21 (34.4) | Treatment-related adverse events: Neutropenia, ≥ Grade 3 [2]: 15 (24.6) | Treatment-related adverse events: Rash, Any Grade [2]: 15 (24.6)
